Test results as given in article PMC2700083, “A covalent peptide inhibitor of RGS4 identified in a focused one-bead, one compound library screen” (BMC Pharmacology, 2009).
In brackets after ≈: the same amount, converted by molar mass. Marks after values point to notes of the source that are not given here. *1 amine or outer side, *2 acyl side, *3 side chain or, on linkers, in order; H or OH if unused. Where a SMILES comes first, the peptide text is derived from it. Bridges are numbered along the chain shown (N, C = ends). CH2 = C([*:1])[*:2]

What was measured:
RGS8 [1] = molecular target: T1, RGS8 (Homo sapiens, UniProt P57771); design: method as in earlier work; settings: David Roman, in preparation; cited from earlier work
T1 construct: RGS8 full length; made in house
T1 sequence (P57771 1-180): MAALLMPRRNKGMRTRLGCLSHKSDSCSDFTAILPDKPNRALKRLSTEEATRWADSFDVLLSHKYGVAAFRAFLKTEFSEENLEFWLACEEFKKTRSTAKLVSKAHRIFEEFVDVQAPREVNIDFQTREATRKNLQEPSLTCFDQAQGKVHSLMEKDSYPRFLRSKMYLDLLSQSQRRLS

RGS4 [2] = molecular target: T2, RGS4 (Rattus norvegicus, UniProt P49799); experiment: FCPIA (flow cytometry protein interaction assay), RGS4-Gαo interaction, wild type RGS4 (MBP-RGS4Δ51N); type: binding
T2 construct: made in house
T2 sequence (P49799 52-205 limits assumed): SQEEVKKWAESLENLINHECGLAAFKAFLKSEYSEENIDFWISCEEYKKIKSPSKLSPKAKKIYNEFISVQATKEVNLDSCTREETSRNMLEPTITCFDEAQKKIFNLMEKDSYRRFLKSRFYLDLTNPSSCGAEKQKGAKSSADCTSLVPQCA
Experimental: (§1) We recently described a bead-based screen in which 2.5 × 10^6 different peptide sequences were prepared as a OBOC library. Fluorescently labeled RGS4 was used to probe the library for peptides that bind RGS4 [5]. […] Since the majority of those hit peptides could bind tightly to the RGS without disrupting GAP activity, they were also tested in the flow cytometry protein interaction assay (FCPIA) (Figure 1), which measures the interaction between RGS4 and Gαo. In this method we used a Luminex flow cytometer to detect the binding of Alexa Fluor 532-labeled Gαo to biotinylated RGS4 on avidin beads in the presence of AMF (AlCl3, MgCl2, NaF and GDP) to put the Gα subunit into a transition state-like conformation. Peptides were tested at 50 μM except where limited by solubility (Table 1).
Figure 1 Hit peptides in the FCPIA. Hit peptides from Roof, et al. 2008 were tested at 50 μM unless otherwise indicated for ability to disrupt the RGS4-Gαo interaction as described using 25 nM Gα o-Alexa Fluor-532 and 5 nM wild type RGS4-biotin (mean ± S.E.M., n ≥ 3) *p < 0.05, **p < 0.01, ***p < 0.001 compared to no peptide.
(§2) Proteins were expressed, purified and labeled as described previously. The mutagenesis was done using the "QuickChange Multi Site-Directed Mutagenesis Kit" from Stratagene according to the manufacturer's protocol. The construct of RGS4 used in these studies is a maltose binding protein (MBP-) fusion protein of the RGS4 sequence from which the amphipathic N-terminal helix has been removed (i.e. MBP-RGS4Δ51N). For simplicity in the text, this will be referred to as RGS4. All other RGS proteins were human sequences and were used as Mpb fusions: RGS7 RGS domain (aa: 305–453), RGS8 full length, RGS16 full length, and RGS19ΔC11 (amino acids 1–209). To cleave RGS4Δ51N from the MBP-His6 construct for MS analysis, MBP-His6-RGS4Δ51N was treated with 15% MBP-His6-TEV protease S219V [11] for 22 hours at 4°C and purified over a Ni-NTA column.
FCPIA was performed as previously published.

[3] = Solubility in buffer by HPLC; type: physicochemical; settings: in buffer, determined by HPLC; for solubility: read-out: Buffer Solubility
Experimental: Soluble peptides were synthesized on Rink resin, cleaved and cyclized as described previously. Peptide purity (at least 95%) and solubility were verified by high-performance liquid chromatography and correct mass was verified by MS analysis. ALogP calculations are from. Peptides were prepared as 5 mM stocks in DMSO.

RGS8 [4] = molecular target: T1, RGS8; experiment: FCPIA, Gαo binding to RGS8; settings: no wash, read-out: percent inhibition, RGS8
Experimental: as §1
5nd inhibited Gαo binding to a number of different RGS proteins (Figure 2). […] RGS19 and RGS7 are in the RZ and R7 families, respectively and show less inhibition by 5nd. Linear as well as bridged versions of peptide 5 were tested in the FCPIA since cyclization yields would most likely have been less then 100% in the synthesis of the library leaving some linear peptides present on each bead. […] This may be due to lack of structural rigidity necessary for the correct interaction of the peptide with the RGS protein or a role for chemical reactivity of the disulfide.
Figure 2 Characterization of hit 5. A) and B) Dose response curves for 5nd in the FCPIA with different RGS proteins (RGS Family), (mean ± S.E.M., n = 3) *p < 0.05, **p < 0.01, ***p < 0.001 compared to RGS4 at the same 5nd concentration. C) Peptides were tested at 50 μM as in Figure 1, (mean ± S.E.M., n ≥ 3) *p < 0.05, **p < 0.01, ***p < 0.001 compared to no peptide.
Figure 3 Irreversibility experiments. RGS-biotin on avidin beads was treated with 5nd (100 μM) or 5nm (100 μM) and then washed in buffer (with or without 1 mM DTT) or not washed and put in the FCPIA using RGS4 (A) or RGS8 (B) (mean ± S.E.M., n ≥ 2) *p < 0.05, **p < 0.01, ***p < 0.001 compared to no peptide (100%); #p < 0.05, ##p < 0.01, ###p < 0.001 compared to 5nd no wash.
as §2, with “To cleave RGS4Δ51N from the MBP-His6 construct for MS analysis, MBP-His6-RGS4Δ51N was treated with 15% MBP-His6-TEV protease S219V [11] for 22 hours at 4°C and purified over a Ni-NTA column.” left out

RGS4 [5] = molecular target: T2, RGS4; experiment: FCPIA (flow cytometry protein interaction assay), RGS4-Gαo interaction, wild type RGS4 (MBP-RGS4Δ51N); type: binding; settings: peptide 100 μM
[6] = peptide 50 μM, 25 nM Gαo-Alexa Fluor-532, 5 nM RGS4-biotin

Row | Structure (SMILES) | % Inhibition of RGS4-Gαo (RGS4 [2]; [6]) | solubility [3] [µM] | further results
1 | COS(=NS(=O)(=O)c1ccc(Cl)cc1)c1ccc([N+](=O)[O-])cc1 (stereo not drawn) [CCG-4986, methyl N-[(4-chlorophenyl)sulfonyl]-4-nitrobenzenesulfinimidoate] |  |  | activity against RGS8 (RGS8 [1]): no activity
2 | CC(=O)N[C@@H](Cc1ccc(O)cc1)C(=O)N[C@@H](CC(N)=O)C(=O)N[C@H]1CSSC[C@@H](C(=O)N[C@@H](CCCCN)C(N)=O)NC(=O)[C@H](CCC(=O)O)NC(=O)CNC(=O)[C@H](CCC(N)=O)NC1=O [Peptide 1ad, Ac-YNCQGECK-NH2] (Ac-YNCQGECK-NH2; disulfide 3-7) | 14 ± 6% | 123 (≈ 121 µg/mL) | 
3 | NCCCC[C@H](NC(=O)[C@@H]1CSSC[C@H](NC(=O)[C@H](CC(N)=O)NC(=O)[C@@H](N)Cc2ccc(O)cc2)C(=O)N[C@@H](CCC(N)=O)C(=O)NCC(=O)N[C@@H](CCC(=O)O)C(=O)N1)C(N)=O [Peptide 1nd, YNCQGECK-NH2] (H-YNCQGECK-NH2; disulfide 3-7) | 2 ± 4% | ≥ 420 | 
4 | CC(=O)NCC(=O)N[C@H](C(=O)N[C@H]1CSSC[C@@H](C(=O)N[C@@H](Cc2c[nH]c3ccccc23)C(N)=O)NC(=O)[C@H]([C@@H](C)O)NC(=O)CNC(=O)[C@H](Cc2ccccc2)NC1=O)[C@@H](C)O [Peptide 2ad, Ac-GTCFGTCW-NH2] (Ac-GTCFGTCW-NH2; disulfide 3-7) |  | 30 (≈ 27.4 µg/mL) | % Inhibition of RGS4-Gαo (RGS4 [2]; peptide 10 μM): 10 ± 4 (10 μM) %
5 | C[C@@H](O)[C@@H]1NC(=O)CNC(=O)[C@H](Cc2ccccc2)NC(=O)[C@@H](NC(=O)[C@@H](NC(=O)CN)[C@@H](C)O)CSSC[C@@H](C(=O)N[C@@H](Cc2c[nH]c3ccccc23)C(N)=O)NC1=O [Peptide 2nd, GTCFGTCW-NH2] (H-GTCFGTCW-NH2; disulfide 3-7) | 19 ± 3** % | 464 (≈ 404 µg/mL) | 
6 | CC(=O)N[C@@H](CC(C)C)C(=O)N[C@H](C(=O)N[C@H]1CSSC[C@@H](C(=O)N[C@@H](CCC(N)=O)C(N)=O)NC(=O)[C@H](Cc2ccc(O)cc2)NC(=O)CNC(=O)[C@H](CCCCN)NC1=O)C(C)C [Peptide 3ad, Ac-LVCKGYCQ-NH2] (Ac-LVCKGYCQ-NH2; disulfide 3-7) | 10 ± 3% | 427 (≈ 407 µg/mL) | 
7 | CC(C)C[C@H](N)C(=O)N[C@H](C(=O)N[C@H]1CSSC[C@@H](C(=O)N[C@@H](CCC(N)=O)C(N)=O)NC(=O)[C@H](Cc2ccc(O)cc2)NC(=O)CNC(=O)[C@H](CCCCN)NC1=O)C(C)C [Peptide 3nd, LVCKGYCQ-NH2] (H-LVCKGYCQ-NH2; disulfide 3-7) | 12 ± 2% | ≥ 470 | 
8 | CSCC[C@@H]1NC(=O)[C@@H](NC(=O)[C@@H](NC(=O)[C@H](CCCCN)NC(C)=O)C(C)C)CSSC[C@@H](C(=O)N[C@H](C(N)=O)[C@@H](C)O)NC(=O)CNC(=O)CNC1=O [Peptide 4ad, Ac-KVCMGGCT-NH2] (Ac-KVCMGGCT-NH2; disulfide 3-7) | 9 ± 6% | 459 (≈ 384 µg/mL) | 
9 | CSCC[C@@H]1NC(=O)[C@@H](NC(=O)[C@@H](NC(=O)[C@@H](N)CCCCN)C(C)C)CSSC[C@@H](C(=O)N[C@H](C(N)=O)[C@@H](C)O)NC(=O)CNC(=O)CNC1=O [Peptide 4nd, KVCMGGCT-NH2] (H-KVCMGGCT-NH2; disulfide 3-7) | 4 ± 3% | ≥ 470 | 
10 | CC(=O)N[C@@H](Cc1ccc(O)cc1)C(=O)N[C@@H](Cc1c[nH]c2ccccc12)C(=O)N[C@H]1CSSC[C@@H](C(=O)N[C@@H](CCCCN)C(N)=O)NC(=O)[C@H](CC(C)C)NC(=O)CNC(=O)[C@H](CCCCN)NC1=O [Peptide 5ad, Ac-YWCKGLCK-NH2] (Ac-YWCKGLCK-NH2; disulfide 3-7) | 37 ± 3*** % | 464 (≈ 482 µg/mL) | 
11 | CC(=O)N[C@@H](Cc1ccc(O)cc1)C(=O)N[C@@H](Cc1c[nH]c2ccccc12)C(=O)N[C@@H](CS)C(=O)N[C@@H](CCCCN)C(=O)NCC(=O)N[C@@H](CC(C)C)C(=O)N[C@@H](CS)C(=O)N[C@@H](CCCCN)C(N)=O [Peptide 5al, Ac-YWCKGLCK-NH2] (Ac-YWCKGLCK-NH2) |  | 460 (≈ 479 µg/mL) | 
12 | CC(C)C[C@H](NC(=O)CNC(=O)[C@H](CCCCN)NC(=O)[C@H](CS)NC(=O)[C@H](Cc1c[nH]c2ccccc12)NC(=O)[C@@H](N)Cc1ccc(O)cc1)C(=O)N[C@@H](CS)C(=O)N[C@@H](CCCCN)C(N)=O [Peptide 5nl, YWCKGLCK-NH2] (H-YWCKGLCK-NH2) |  | 465 (≈ 465 µg/mL) | 
13 | CC(C)C[C@@H]1NC(=O)CNC(=O)[C@H](CCCCN)NC(=O)[C@@H](NC(=O)[C@H](Cc2c[nH]c3ccccc23)NC(=O)[C@@H](N)Cc2ccc(O)cc2)CSCSC[C@@H](C(=O)N[C@@H](CCCCN)C(N)=O)NC1=O [Peptide 5nm, YWCKGLCK-NH2] (H-YWCKGLCK-NH2; linker 3-7 via CH2) |  | ≥ 470 | inhibition at 100 µM (RGS8 [4]): 18 ± 1%; % Inhibition of RGS4-Gαo (RGS4 [5]): 3 ± 0.1 (100 μM) %
14 | CC(=O)N[C@@H](CCCCN)C(=O)N[C@@H](Cc1c[nH]cn1)C(=O)N[C@H]1CSSC[C@@H](C(=O)N[C@@H](Cc2ccc(O)cc2)C(N)=O)NC(=O)[C@H](Cc2ccccc2)NC(=O)CNC(=O)[C@H](Cc2ccc(O)cc2)NC1=O [Peptide 6ad, Ac-KHCYGFCY-NH2] (Ac-KHCYGFCY-NH2; disulfide 3-7) | 27 ± 4*** % | 421 (≈ 446 µg/mL) | 
15 | NCCCC[C@H](N)C(=O)N[C@@H](Cc1c[nH]cn1)C(=O)N[C@H]1CSSC[C@@H](C(=O)N[C@@H](Cc2ccc(O)cc2)C(N)=O)NC(=O)[C@H](Cc2ccccc2)NC(=O)CNC(=O)[C@H](Cc2ccc(O)cc2)NC1=O [Peptide 6nd, KHCYGFCY-NH2] (H-KHCYGFCY-NH2; disulfide 3-7) |  |  | % Inhibition of RGS4-Gαo (RGS4 [2]; peptide 25 μM): 23 ± 15 (25 μM) * %; Buffer Solubility [3]: Low
16 | CC[C@H](C)[C@@H]1NC(=O)CNC(=O)[C@H]([C@@H](C)O)NC(=O)[C@@H](NC(=O)[C@H](CCCCN)NC(=O)[C@@H](NC(C)=O)C(C)C)CSSC[C@@H](C(=O)N[C@@H](CCC(=O)O)C(N)=O)NC1=O [YJ34, Ac-Val-Lys-c [Cys-Thr-Gly-Ile-Cys]-Glu-NH2, S-S, reference compound] (Ac-VKCTGICE-NH2; disulfide 3-7) |  | 80 (≈ 71.3 µg/mL) | % Inhibition of RGS4-Gαo (RGS4 [2]; peptide 40 μM): -17 ± 4 (40 μM) %
